# Assays:
# metastatic melanoma = test: Phase II M D Anderson trial of paclitaxel Q4Dx3 every 21 days, tumor responses; assay type: in vivo, human
# Text: Cytokines and therapeutic agents which may be used include, for example, platinum compounds (e.g., spiroplatin, cisplatin, and carboplatin), thalidomide, methotrexate, adriamycin, mitomycin, ansamitocin, bleomycin, cytosine arabinoside, arabinosyl adenine, mercaptopolylysine, vincristine, busulfan, chlorambucil, melphalan (e.g., PAM, L-PAM or phenylalanine mustard), mercaptopurine, mitotane, carmustine, procarbazine hydrochloride dactinomycin (actinomycin D), daunorubicin hydrochloride, doxorubicin hydrochloride, taxol, mitomycin, plicamycin (mithramycin), aminoglutethimide, estramustine phosphate sodium, flutamide, leuprolide acetate, megestrol acetate, tamoxifen citrate, testolactone, trilostane, amsacrine (m-AMSA), asparaginase (L-asparaginase) Erwina asparaginase, etoposide (VP-16), interferon α-2a, interferon α-2b, teniposide (VM-26), vinblastine sulfate (VLB), vincristine sulfate, bleomycin, bleomycin sulfate, methotrexate, adriamycin, and arabinosyl; biological response modifiers such as muramyldipeptide, muramyltripeptide, microbial cell wall components, lymphokines (e.g., bacterial endotoxin such as lipopolysaccharide, macrophage activation factor), sub-units of bacteria (such as Mycobacteria, Corynebacteria), the synthetic dipeptide N-acetyl-muramyl-L-alanyl-D-isoglutamine; hormones such as growth hormone, melanocyte stimulating hormone, estradiol, beclomethasone dipropionate, betamethasone, betamethasone acetate and betamethasone sodium phosphate, vetamethasone disodium phosphate, vetamethasone sodium phosphate, cortisone acetate, dexamethasone, dexamethasone acetate, dexamethasone sodium phosphate, flunisolide, hydrocortisone, hydrocortisone acetate, hydrocortisone cypionate, hydrocortisone sodium phosphate, hydrocortisone sodium succinate, methylprednisolone, methylprednisolone acetate, methylprednisolone sodium succinate, paramethasone acetate, prednisolone, prednisolone acetate, prednisolone sodium phosphate, prednisolone tebutate, prednisone, triamcinolone, triamcinolone acetonide, triamcinolone diacetate, triamcinolone hexacetonide and fludrocortisone acetate; immunoadjuvants and cytokines may also be employed, including interleukins (e.g., IL-1, IL-2, IL-3, IL-6), leukemia inhibitory factor, interferons, such as INF-α, TGF-beta, erythropoietin, TNF, lymphotoxin, and thrombopoietin; thalidomide and/or other agents to inhibit the production and/or action of cytokine/growth factors such as M-α, IGF-1, EGF, TGF α, IL-1β, MGSA and bFGF in different cell types involved in tumor growth and/or angiogenesis of melanoma.
# [1] = tested on: adult leukemia, solid tumors, and pediatric solid tumor patients; test: Earlier published trials of the Q4D paclitaxel schedule; assay type: in vivo, human; conditions: one patient with a recurrent large metastatic melanoma
# Text: An added benefit to this regimen includes a reduction in myelosupression. To this end, we devised the Q4 day (Q4D)×3 every 21-day treatment schedule which has the added value of increasing the dose intensity during each 21-day treatment period beyond that of the once every 21-day schedule (Ainsworth S. K., and Helson, L., U.S. Pat. No. 5,696,153 issued Dec. 9, 1997). […] During these trials an anecdotal twelve-month partial response in a patient with a recurrent large metastatic melanoma was observed. […]
# patients with melanoma [2] = conditions: cited from earlier work
# patients with melanoma [3] = tested on: patients with melanoma
# [4] = 17 patients, 90 mg/M^2 Q4 days x3
smiles,measurement,setting,value
CC(=O)O[C@H]1C(=O)[C@@]2(C)[C@H]([C@H](OC(=O)c3ccccc3)[C@]3(O)C[C@H](OC(=O)[C@H](O)[C@@H](NC(=O)c4ccccc4)c4ccccc4)C(C)=C1C3(C)C)[C@]1(OC(C)=O)CO[C@@H]1C[C@@H]2O [paclitaxel],tumor volume decrease,"metastatic melanoma; Patient #1, after another two courses (four in all)",83%
same,decrease in liver metastases volume,"metastatic melanoma; Patient #1, after two courses at 270 mg/M^2/course",41%
same,decrease in lung metastases,"metastatic melanoma; Patient #2, 270 mg/M^2/course",43%
same,"tumor control maintained, number of courses","metastatic melanoma; Patient #2, 270 mg/M^2/course",eight
same,decrease in tumor volume,"metastatic melanoma; Patient #3, scapular primary, after 4 courses at 270 mg/M^2/course",39%
same,decrease in tumor volume,"metastatic melanoma; Patient #4, right calf primary, after 4 courses at 270 mg/M^2/course",15%
same,decrease in tumor volume,"metastatic melanoma; Patient #5, right heel mass, after 2 courses at 270 Mg/M^2/course",12%
same,clinical response,"metastatic melanoma; Patient #6, during 4 courses at 270 mg/M^2/course",stable disease
same,clinical response,"metastatic melanoma; Patient #7, ciliochoroidal primary, no previous chemotherapy, after 3 courses at 270 mg/M^2/course",stable disease
same,clinical response,"metastatic melanoma; Patient #8, tumor of dorsum of right foot, previously treated, during two courses at 270 mg/M^2/course",stable disease
same,clinical response,"metastatic melanoma; Patient #9, non-choroidal melanoma, no prior chemotherapy, during 6 courses at 270 mg/M^2/course",stable disease
same,"objective responses, tumor reduction","metastatic melanoma; interim analysis, first 21 patients, 90 mg/M^2/dose Q4D, advanced heavily pretreated melanoma",greater than 50%
same,reductions in hepatic tumor masses,"metastatic melanoma; interim analysis, sustained over one month, additional two patients of first 21, 90 mg/M^2/dose Q4D",25-40%
same,duration of anecdotal partial response,[1],twelve
same,partial responses in patients with melanoma,"patients with melanoma [2]; 24-hour infusion, 250 mg/M^2 once every three weeks (Legha 1990)",3/25
same,paclitaxel dose a majority of the melanoma patients could tolerate,patients with melanoma [2]; Legha 1990,≤ 200 mg/M^2
same,objective responses,"patients with melanoma [2]; phase II, same schedule (24-hour infusion 250 mg/M^2 q3 weeks), 28 patients (Einzig 1988)",five
same,maximum tolerated dose intensity under previous regimens,patients with melanoma [2]; three 175 mg/M^2 doses given every 21 days (63-day period),525 mg/M^2
same,associated toxicity versus 200 mg/M^2 Q 21-day schedule,"patients with melanoma [3]; 270 mg/M^2 per 21 days, Q4D schedule",significantly less
same,Grade 3 abdominal pain (sufficient to interfere with function),patients with melanoma [3]; [4],3 patients
same,Grade 3 anemia (between 6.5-7.9 grams/100 ml blood),patients with melanoma [3]; [4],2 patients
same,Grade 3 diarrhea (over 7-9 stools/day),patients with melanoma [3]; [4],2 patients
same,Grade 3 edema (>20% weight gain),patients with melanoma [3]; [4],1 patient
same,Grade 3 fatigue (objective weakness with impairment of function),patients with melanoma [3]; [4],4 patients
same,Grade 3 granulocytopenia (between 0.5-0.9x10^3/mm^3),patients with melanoma [3]; [4],6 patients
same,Grade 3 increased alkaline phosphatase levels (between 5.1-20xN),patients with melanoma [3]; [4],2 patients
same,"Grade 3 toxicity, number of patients",patients with melanoma [3]; [4],11 patients
same,"Grade 3 toxicity, number of times",patients with melanoma [3]; [4],21 times
same,Grade 4 BUN increase (greater than 10 times normal values),patients with melanoma [3]; [4],1 patient
same,Grade 4 granulocytopenia (less than 0.5x10^3/mm^3),patients with melanoma [3]; [4],4 patients
same,Grade 4 leukopenia (less than 1.0x10^3/mm^3),patients with melanoma [3]; [4],2 patients
same,"Grade 4 toxicity, number of patients",patients with melanoma [3]; [4],3 patients
same,major side effect,"patients with melanoma [3]; Patient #2, eight courses at 270 mg/M^2/course",paresthesia

# Source: patent US20020013362A1 (priority 2000, published 2002)
